The values below come from publication PMC10632520, “Structural flexibility of apolipoprotein E-derived arginine-rich peptides improves their cell penetration capability” (Scientific Reports, 2023).

The data set is described as follows: Channel current (electrophysiological) analysis of peptide-induced pores. The conditions noted are these: planar DOPC bilayer, 10 µM peptide, 100 mV; pH 7.0. In kind it is physicochemical. The procedure:
Electrophysiological measurements were performed using a MECA 16 TC chip with an Orbit 16 TC device (Nanion Technologies GmbH, Munich, Germany) according to the manufacturer’s instructions. The MECA 16 TC chamber was filled with 200 µL of buffer solution (150 mM KCl, 10 mM MOPS, pH 7.0); 1 µL of DOPC (lipid/n-decan, 10 mg/mL) solution was added to the chamber, and planar lipid bilayers were automatically prepared using the Orbit 16TC stirrer. The peptide was then dissolved in the chamber at 10 µM (a lipid/peptide molar ratio of ~ 6 in the chamber system), and 100 mV of voltage was applied. The channel current was monitored using the Orbit 16 TC Elements Data Reader 4 v.1.0.22. The channel current signals were detected using a 4-kHz low-pass filter at a sampling frequency of 20 kHz. Analysis of the channel signals was performed using pCLAMP ver. 10.7 (Molecular Devices, CA, USA). The data obtained in this measurement are n (number of current signals): 2081 > n > 311; N (number of experiments) > 3.

Residues, ends and D or L forms follow the SMILES beside them.

For `CC(=O)N[C@@H](CC(C)C)C(=O)N[C@@H](CCCNC(=N)N)C(=O)N[C@@H](CCCCN)C(=O)N[C@@H](CC(C)C)C(=O)N[C@@H](CCCNC(=N)N)C(=O)N[C@@H](CCCCN)C(=O)N[C@@H](CCCNC(=N)N)C(=O)N[C@@H](CC(C)C)C(=O)N[C@@H](CC(C)C)C(=O)N[C@@H](CCCNC(=N)N)C(=O)N[C@@H](CC(C)C)C(=O)N[C@@H](Cc1c[nH]c2ccccc12)C(=O)N[C@@H](CCCCN)C(=O)N[C@@H](CC(C)C)C(=O)N[C@@H](CCCNC(=N)N)C(=O)N[C@@H](CCCCN)C(=O)N[C@@H](CCCNC(=N)N)C(N)=O` [A2-17] (Ac-LRKLRKRLLRLWKLRKR-NH2), the “charge flux accompanied by spike current signal” value is “much greater for A2-17 than that for StpA2-17 or StchA2-17”.
